Measured values reported in patent EP0575454B1, “USE OF CUCURBITINE FOR THE PREPARATION OF A COSMETIC OR PHARMACEUTICAL, PARTICULARLY DERMATOLOGICAL, ANTIALLERGIC COMPOSITION AND METHOD INVOLVING APPLICATION THEREOF” (PARFUMS CHRISTIAN DIOR, priority 1991, dated 1992).

Tests used:
enzyme HDC = assay: RIA (radioimmunoassay) of the histamine produced by the HDC enzyme; type: biochemical; conditions: for % I (Inhibition) à 5 min / histamine libérée / % I (Inhibition) à 10 min: histidine 16.10^-3 molaire, effector 2.10^-3 molaire; for % I (Inhibition) à 5 min / % I (Inhibition) à 10 min: pH 6,3, 2000 µM; for histamine libérée: phosphate buffer pH 6,3
Text: On peut également mettre en évidence l'activité anti-histaminique de la cucurbitine par un dosage radioimmunologique (Radio Immuno Assay ou "RIA") de la manière suivante.
Ce dosage a lieu en dosant l'histamine directement produite sous l'action de l'enzyme HDC, par la méthode RIA, bien connue à l'homme de l'art, et notamment décrite dans la notice d'utilisation d'un kit de dosage dénommé HISTAMINE Radioimmunoassay kit (Cat. # 1302) commercialisé par la Société IMMUNOTECH (Marseille-France).
On dose au cours du temps La quantité d'histamine libérée (en nanomoles) pour une concentration de 16.10^-3 molaire d'histidine dans un tampon phosphate à pH 6,3, respectivement sans effecteur, avec la tritoqualine comme effecteur de comparaison et avec de la cucurbitine racémique de synthèse comme agent anti-histaminique selon l'invention. La tritoqualine et la cucurbitine sont utilisées à la concentration de 2.10^-3 molaire.
Les résultats obtenus exprimés en nanomoles […] libérée sont répertoriés au tableau III ci-après et font l'objet de la courbe de la figure 2 où l'on a indiqué en ordonnées le nombre de nanomoles d'histamine libérée et en abscisses le temps exprimé en minute. La courbe sans effecteur est tracée en trait continu, la courbe obtenue avec la tritoqualine est tracée en trait mixte et la courbe obtenue avec la cucurbitine est tracée en pointillés. TABLEAU III

[1] = system: histidine décarboxylase (HDC); assay: Enzymatic test: colorimetric assay (MBTH/DMAB) of histidine decarboxylase inhibition, initial reaction rates (Michaelis curves); type: biochemical; conditions: for vitesse initiale: racemic cucurbitine
Text: Ce test est basé sur l'action inhibitrice de la cucurbitine sur l'enzyme histidine décarboxylase (HDC) qui transforme l'histidine en histamine, par rapport à celle de la tritoqualine, qui est un inhibiteur connu de l'HDC (voir Carpi C., Maggi G.C. Bull. Soc Ital. Sper. 1968, 44 (6 543-4), et qui est utilisée en thérapeutique comme hypohistaminémiant sous le non de Hypostamine®.
L'activité inhibitrice sur l'HDC peut être aisément réalisée par un dosage colorimétrique sur la base de la réaction chimique suivante :
MBTH = 3-méthyl-2-benzothiazolinone hydrazone DMAB = 3-(diméthylamino)benzoic acid
En pratique, on observe que la formation de la coloration bleue est proportionnelle à la concentration en histidine consommée. On a ainsi pu définir des vitesses initiales de réaction et établir des courbes dites de Mickaelis comme décrit dans Fundamentals of Enzymology, 2nd Ed. Oxford Univ. Press, 1989.
La vitesse initiale est exprimée en variation d'absorbance par minute.
Les résultats obtenus avec diverses concentrations initiales d'histidine, à savoir à 132 nmol, 265 nmol, et 530 nmol, respectivement sans effecteur, avec tritoqualine comme inhibiteur d'HDC connu, et avec la cucurbitine sous forme racémique comme inhibiteur selon l'invention sont répertoriés au tableau II ci-après et font l'objet de la courbe de Mickaelis, objet de la figure 1. Tableau II

% I (Inhibition) à 5 min (enzyme HDC; 5 min) [%] | histamine libérée (enzyme HDC; 5 min) | % I (Inhibition) à 10 min (enzyme HDC; 10 min) [%] | histamine libérée (enzyme HDC; 10 min) | vitesse initiale ([1]; Histidine 132 nmol) | vitesse initiale ([1]; Histidine 265 nmol) | vitesse initiale ([1]; Histidine 530 nmol) | SMILES | activité inhibitrice de la formation d'histamine (comparison in words) (enzyme HDC; compared with tritoqualine, after a few minutes) | inhibiteur d'HDC (comparison in words) ([1]; compared with tritoqualine, Table II and figure 1)
55 | 14,85 nanomoles | 73 | 38,29 nanomoles | 0,013 variation d'absorbance par minute | 0,0242 variation d'absorbance par minute | 0,042 variation d'absorbance par minute | NC1(C(=O)O)CCNC1 (racemic) [Cucurbitine, acide 3-amine-3-pyrrolidinecarboxylique] | nettement plus puissante que la tritoqualine | beaucoup plus puissant que la tritoqualine
49 | 16,48 nanomoles | 65 | 49,27 nanomoles | 0,021 variation d'absorbance par minute | 0,0374 variation d'absorbance par minute | 0,0604 variation d'absorbance par minute | CCOc1c(N)c2c(c(OCC)c1OCC)C(C1c3c(cc4c(c3OC)OCO4)CCN1C)OC2=O (stereo not shown) [Tritoqualine, tritoqualine, reference compound] | – | –
